The nature of data set [1]: Rat pharmacokinetic study. In kind it is in vivo, Male Sprague Dawley rats. The note with it: for AUC(0-inf) / bioavailability / clearance / Cmax: male, Sprague Dawley, plasma, rat; for AUC(0-inf): IV 1 mg·kg^−1 / PO 5 mg·kg^−1 study, route not given; for bioavailability: oral bioavailability, PO 5 mg·kg^−1 vs IV 1 mg·kg^−1; for clearance: single IV 1 mg·kg^−1; for Cmax: single PO 5 mg·kg^−1.

A further data set has as its target EGFR (Homo sapiens, UniProt P00533). Briefly: Biochemical kinase selectivity: IC50 determination of EGFR. The following applies: for IC50: TR-FRET, 20 μM ATP; for Fold of EGFR/Btk: ratio of IC50 values. On the technique in general: Time-resolved FRET reads energy transfer from a long-lived donor to a nearby acceptor.
The target of a further data set is T1, Tec (Homo sapiens, UniProt P42680).
T1 sequence (P42680 1-631): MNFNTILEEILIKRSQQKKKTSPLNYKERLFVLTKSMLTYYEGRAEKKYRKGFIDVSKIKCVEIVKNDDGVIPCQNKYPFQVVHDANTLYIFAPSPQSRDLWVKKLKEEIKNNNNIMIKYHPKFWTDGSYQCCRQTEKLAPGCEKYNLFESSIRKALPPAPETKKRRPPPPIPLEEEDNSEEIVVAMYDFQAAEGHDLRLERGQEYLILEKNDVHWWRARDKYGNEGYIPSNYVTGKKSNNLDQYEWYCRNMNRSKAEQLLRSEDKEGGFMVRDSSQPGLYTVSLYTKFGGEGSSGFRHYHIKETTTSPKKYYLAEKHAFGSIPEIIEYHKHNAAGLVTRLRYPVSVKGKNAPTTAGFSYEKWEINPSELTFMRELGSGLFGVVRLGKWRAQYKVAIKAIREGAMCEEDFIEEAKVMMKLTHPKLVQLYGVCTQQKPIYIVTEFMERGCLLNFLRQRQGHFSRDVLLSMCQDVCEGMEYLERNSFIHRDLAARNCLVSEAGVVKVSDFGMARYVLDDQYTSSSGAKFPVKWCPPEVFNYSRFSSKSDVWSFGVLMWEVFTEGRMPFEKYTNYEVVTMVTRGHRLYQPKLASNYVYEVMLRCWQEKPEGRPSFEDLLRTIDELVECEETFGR
Briefly: Biochemical kinase selectivity: IC50 determination of Tec. The following applies: for IC50: TR-FRET, 280 μM ATP; for Fold of Tec/Btk: ratio of IC50 values.

The target of data set [2] is T2, phosphorylated Btk at Tyr223 (Homo sapiens, UniProt Q06187).
T2 construct: determine the endogenous levels of phosphorylated Btk at Tyr223; endogenous in cells; host or cells: Ramos cells (CRL-1596, ATCC)
Description: Btk pY223 cellular assay (HTRF, Ramos cells). The note with it: compound 3 hours, pervanadate or Na3VO4 stimulation, read-out: IC50 (nM) in cell Btk pY223. It counts as cell-based.
Description: Btk pY223 cellular assay is an HTRF based assay intended to determine the endogenous levels of phosphorylated Btk at Tyr223.
Briefly, Ramos cells were serum starved in 0.5% FBS-containing RPMI1640 overnight. The cells were then incubated with interested compounds at various concentrations in a CO2 incubator for 3 hours. After the incubation, cells were stimulated with 1 mM pervanadate (PV) or Na3VO4 (OV) for 20 min. Then, the cells were collected and lysed with 1× lysis buffer at RT for 10 min (4× lysis buffer supplied in the kit). 1× antibody mix was prepared by diluting anti-Btk-d2 and anti-pBtk-K in detection buffer (supplied in the kit). […] After mixing gently and spinning briefly, the plate was sealed up and kept in dark at RT for 18 hours. […] IC50 values were calculated with GraphPad Prism software using the sigmoidal dose-response function.

The conditions of data set [3]: other Btk inhibitors, meeting abstract 2016; cited from earlier work.
Data set [4] deals with T3, Btk kinase (aa2-659, Carna Biosciences) (Homo sapiens, UniProt Q06187).
T3 construct: purchased Carna Biosciences
Briefly: Btk kinase enzymatic assay (TR-FRET). In kind it is biochemical. The following applies: for IC50: TR-FRET, 30 μM ATP, compound incubated with kinase 60 minutes.

Here are results for 14 compounds from patent publication US20220298163A1, “BTK INHIBITORS WITH IMPROVED DUAL SELECTIVITY” (BEIGENE, LTD., priority 2017, published 2022).

By AUC(0-inf) is commonly meant total exposure, with the tail of the curve extrapolated. A high value points to high exposure. As a reminder, the bioavailability is the share of a dose that reaches the circulation, judged against a reference dose that is usually intravenous. A higher bioavailability goes with good availability. For orientation: clearance means the volume of plasma or blood freed of the substance per unit of time. A low value points to inefficient removal. Broadly, the Cmax is the maximum level reached in the sampled fluid or tissue. For orientation: IC50 means the concentration at which inhibition is half-maximal.

Chain of EGFR (P00533 25-1210): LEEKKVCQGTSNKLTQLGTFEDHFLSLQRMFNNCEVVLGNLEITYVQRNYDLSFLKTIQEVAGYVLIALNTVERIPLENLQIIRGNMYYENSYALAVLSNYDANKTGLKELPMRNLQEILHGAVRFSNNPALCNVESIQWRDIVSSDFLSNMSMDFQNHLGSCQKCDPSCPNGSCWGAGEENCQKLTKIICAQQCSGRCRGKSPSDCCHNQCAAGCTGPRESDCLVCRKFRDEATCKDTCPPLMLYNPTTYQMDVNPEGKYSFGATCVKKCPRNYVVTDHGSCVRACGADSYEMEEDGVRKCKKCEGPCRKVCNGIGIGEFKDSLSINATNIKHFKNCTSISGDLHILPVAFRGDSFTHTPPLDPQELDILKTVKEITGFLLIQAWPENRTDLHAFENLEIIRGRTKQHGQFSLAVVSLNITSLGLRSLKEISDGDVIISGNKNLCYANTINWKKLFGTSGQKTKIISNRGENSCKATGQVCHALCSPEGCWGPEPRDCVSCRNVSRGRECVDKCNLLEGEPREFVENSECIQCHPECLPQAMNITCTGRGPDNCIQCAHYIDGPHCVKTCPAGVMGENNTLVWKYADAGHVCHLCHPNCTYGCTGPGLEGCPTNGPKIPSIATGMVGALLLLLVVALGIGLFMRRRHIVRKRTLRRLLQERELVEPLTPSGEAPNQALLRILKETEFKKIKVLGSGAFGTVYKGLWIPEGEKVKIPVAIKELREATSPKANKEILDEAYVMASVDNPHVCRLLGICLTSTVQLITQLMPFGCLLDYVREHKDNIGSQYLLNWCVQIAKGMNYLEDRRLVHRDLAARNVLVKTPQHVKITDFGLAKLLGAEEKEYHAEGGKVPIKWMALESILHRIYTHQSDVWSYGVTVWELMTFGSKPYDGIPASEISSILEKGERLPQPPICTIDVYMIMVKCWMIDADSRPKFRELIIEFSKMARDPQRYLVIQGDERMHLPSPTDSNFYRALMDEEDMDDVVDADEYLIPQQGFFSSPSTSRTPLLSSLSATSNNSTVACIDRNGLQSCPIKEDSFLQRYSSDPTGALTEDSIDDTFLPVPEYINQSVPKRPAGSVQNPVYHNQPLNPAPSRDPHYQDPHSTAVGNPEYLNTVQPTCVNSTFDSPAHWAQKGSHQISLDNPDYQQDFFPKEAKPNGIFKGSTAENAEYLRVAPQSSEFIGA
T2 sequence (Q06187 whole entry): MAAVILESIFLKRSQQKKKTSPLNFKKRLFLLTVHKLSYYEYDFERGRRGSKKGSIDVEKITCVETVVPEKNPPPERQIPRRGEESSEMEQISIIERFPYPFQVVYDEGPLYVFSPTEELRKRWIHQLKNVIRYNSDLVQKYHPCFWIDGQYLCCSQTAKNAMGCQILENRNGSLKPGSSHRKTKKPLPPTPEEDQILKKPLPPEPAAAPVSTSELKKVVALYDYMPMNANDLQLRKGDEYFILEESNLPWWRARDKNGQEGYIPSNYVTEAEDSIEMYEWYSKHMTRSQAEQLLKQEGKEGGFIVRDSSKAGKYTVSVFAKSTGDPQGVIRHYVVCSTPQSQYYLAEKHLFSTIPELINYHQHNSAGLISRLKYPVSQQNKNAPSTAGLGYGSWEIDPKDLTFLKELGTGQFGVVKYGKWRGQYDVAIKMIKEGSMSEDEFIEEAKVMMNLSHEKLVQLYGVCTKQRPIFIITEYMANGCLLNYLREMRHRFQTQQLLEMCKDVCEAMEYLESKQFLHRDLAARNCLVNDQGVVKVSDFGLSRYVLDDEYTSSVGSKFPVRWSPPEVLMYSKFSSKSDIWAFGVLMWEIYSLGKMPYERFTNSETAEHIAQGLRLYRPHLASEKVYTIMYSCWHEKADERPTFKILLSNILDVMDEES
T3 sequence (Q06187 2-659): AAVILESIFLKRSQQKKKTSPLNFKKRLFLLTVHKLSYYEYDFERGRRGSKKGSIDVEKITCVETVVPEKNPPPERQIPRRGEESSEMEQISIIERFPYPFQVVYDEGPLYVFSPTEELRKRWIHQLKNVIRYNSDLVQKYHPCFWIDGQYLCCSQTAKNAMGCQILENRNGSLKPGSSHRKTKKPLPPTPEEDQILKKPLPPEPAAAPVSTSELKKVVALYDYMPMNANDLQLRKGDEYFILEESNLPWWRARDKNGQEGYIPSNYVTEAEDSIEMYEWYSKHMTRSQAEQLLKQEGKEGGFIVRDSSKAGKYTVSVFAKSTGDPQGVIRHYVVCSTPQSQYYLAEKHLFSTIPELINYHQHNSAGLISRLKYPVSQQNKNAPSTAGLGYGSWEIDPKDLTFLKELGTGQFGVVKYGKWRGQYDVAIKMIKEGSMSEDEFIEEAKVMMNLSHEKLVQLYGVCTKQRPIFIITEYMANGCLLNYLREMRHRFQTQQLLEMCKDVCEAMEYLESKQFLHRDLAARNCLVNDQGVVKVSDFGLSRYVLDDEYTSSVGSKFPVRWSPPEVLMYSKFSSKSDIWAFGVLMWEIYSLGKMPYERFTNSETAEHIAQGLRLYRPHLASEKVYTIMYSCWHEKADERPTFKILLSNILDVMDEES

In data set [1], `C=CC(=O)N1CCC(C2CCNc3c(C(N)=O)c(-c4cc(OC)c(C5CC5)c(OC)c4)nn32)CC1` (single isomer, unassigned) [Example A2a, (S or R)-7-(1-acryloylpiperidin-4-yl)-2-(4-cyclopropyl-3,5-dimethoxyphenyl)-4,5,6,7-tetrahydropyrazolo[1,5-a]pyrimidine-3-carboxamide] had an area under the curve AUC(0-inf) of 1710 ng·h/mL, a bioavailability of 73.7%, a clearance of 42.8 mL/min/kg and a peak concentration (Cmax) of 859 ng/mL. Besides, the “plasma clearance, Cmax, AUC and oral bioavailability compared to compound 167*” value in data set [1] (rat PK study, Table IV) is “lower plasma clearance values, higher Cmax, AUC and oral bioavailability”.

On EGFR, `C=CC(=O)Nc1ccccc1C1CCNc2c(C(N)=O)c(-c3cc(OC)c(OC)c(OC)c3)nn21` (stereo not drawn) [167^#] registered a 50% inhibitory concentration (IC50) of 9.5 nM. Also, in data set [1], the AUC(0-inf) was 65.1 ng·h/mL, the bioavailability stood at 11.8%, the clearance amounted to 152 mL/min/kg and the peak level (Cmax) was 60.4 ng/mL. Further, the 50% inhibitory concentration (IC50) on Tec turned out to be 157 nM. Also, in data set [2], the IC50 stood at 83.5 nM.

Regarding `CC#CC(=O)N1CCC[C@H]1c1nc(-c2ccc(C(=O)Nc3ccccn3)cc2)c2c(N)nccn12` [ACP-196], in data set [3], the “bleeding adverse event (in words)” value is reported as “Bleeding as a common adverse event (AE)”.

For `C=CC(=O)N1CCC([C@@H]2CCNc3c(C(N)=O)c(-c4ccc(Oc5ccccc5)cc4)nn32)CC1` [BGB-3111], the “bleeding adverse event (in words)” value in data set [3] is “Bleeding as a common adverse event (AE)”.

On to `C=CC(=O)N1CCC(C2CCNc3c(C(N)=O)c(-c4cc(Cl)c(C)c(OC)c4)nn32)CC1` (stereo not drawn) [Example A35, 7-(1-acryloylpiperidin-4-yl)-2-(3-chloro-5-methoxy-4-methylphenyl)-4,5,6,7-tetrahydropyrazolo[1,5-a]pyrimidine-3-carboxamide], for which the IC50 worked out at 1150 nM on EGFR, 174 nM against Tec, 65 nM in data set [2] and 2.3 nM in data set [4]. In addition, the “Fold of EGFR/Btk” value at EGFR is reported as 500 fold. Besides, the “Fold of Tec/Btk” value at Tec was 75.6 fold.

Consider `C=CC(=O)N1CCC(C2CCNc3c(C(N)=O)c(-c4cc(Cl)c(C5CC5)c(OC)c4)nn32)CC1` (stereo not drawn) [Example A36, 7-(1-acryloylpiperidin-4-yl)-2-(3-chloro-4-cyclopropyl-5-methoxyphenyl)-4,5,6,7-tetrahydropyrazolo[1,5-a]pyrimidine-3-carboxamide], for which the half-inhibitory concentration (IC50) on EGFR was 2570 nM; against Tec, 137 nM; in data set [2], 50.5 nM; in data set [4] it was 1.1 nM. Besides, the “Fold of EGFR/Btk” value at EGFR was found to be 2339 fold. Besides, the “Fold of Tec/Btk” value at Tec is given as 125 fold. Also, the “affinity / inhibitory activity for Btk (in words)” value (“affinity / inhibitory activity” below) in data set [4] is “high affinity for Btk”.

For `C=CC(=O)N1CCC(C2CCNc3c(C(N)=O)c(-c4cc(OC)c(C(F)(F)F)c(OC)c4)nn32)CC1` (stereo not drawn) [Example A38, 7-(1-acryloylpiperidin-4-yl)-2-(3,5-dimethoxy-4-(trifluoromethyl)phenyl)-4,5,6,7-tetrahydropyrazolo[1,5-a]pyrimidine-3-carboxamide], the IC50 against EGFR was found to be 2250 nM; at Tec, 264 nM; in data set [2], 36.7 nM; in data set [4], 2.8 nM. For the same compound, at EGFR, the “Fold of EGFR/Btk” value came out at 803 fold. The “Fold of Tec/Btk” value at Tec was determined as 94 fold.

As to `C=CC(=O)N1CCC(C2CCNc3c(C(N)=O)c(-c4cc(OC)c(/C=C/c5ccccc5)c(OC)c4)nn32)CC1` (stereo not drawn) [Example A41, (E)-7-(1-acryloylpiperidin-4-yl)-2-(3,5-dimethoxy-4-styrylphenyl)-4,5,6,7-tetrahydropyrazolo[1,5-a]pyrimidine-3-carboxamide], the 50% inhibitory concentration (IC50) against EGFR amounted to 1510 nM; at Tec, 101 nM; in data set [2], 66.8 nM; in data set [4], 3.3 nM. The “Fold of EGFR/Btk” value at EGFR came out at 458 fold. Also, the “Fold of Tec/Btk” value at Tec is 31 fold.

`C=CC(=O)N1CCC(C2CCNc3c(C(N)=O)c(-c4cc(OC)c(C(C)O)c(OC)c4)nn32)CC1` (stereo not drawn) [Example A46, 7-(1-acryloylpiperidin-4-yl)-2-(4-(1-hydroxyethyl)-3,5-dimethoxyphenyl)-4,5,6,7-tetrahydropyrazolo[1,5-a]pyrimidine-3-carboxamide]: the IC50 on EGFR amounted to 3810 nM; on Tec, 974 nM; in data set [2], 258 nM; in data set [4], 5.9 nM. Moreover, the “Fold of EGFR/Btk” value at EGFR is 646 fold. Moreover, the “Fold of Tec/Btk” value on Tec was 165 fold. Also, the “affinity / inhibitory activity” value in data set [4] was “high affinity for Btk”.

Take `C#CC(=O)N1CCC(C2CCNc3c(C(N)=O)c(-c4cc(OC)c(C)c(OC)c4)nn32)CC1` (stereo not drawn) [Example A50, 2-(3,5-dimethoxy-4-methylphenyl)-7-(1-propioloylpiperidin-4-yl)-4,5,6,7-tetrahydropyrazolo[1,5-a]pyrimidine-3-carboxamide]: the concentration for half-maximal inhibition (IC50) turned out to be 599 nM on EGFR, 3.2 nM against Tec, 12.3 nM in data set [2] and 0.34 nM in data set [4]. Moreover, the “Fold of EGFR/Btk” value on EGFR came to 1762 fold. Moreover, on Tec, the “Fold of Tec/Btk” value came out at 9.4 fold.

Regarding `C=CC(=O)N1CC(C2CCNc3c(C(N)=O)c(-c4cc(OC)c(Br)c(OC)c4)nn32)C1` (stereo not drawn) [Example B2, 7-(1-acryloylazetidin-3-yl)-2-(4-bromo-3,5-dimethoxyphenyl)-4,5,6,7-tetrahydropyrazolo[1,5-a]pyrimidine-3-carboxamide], the IC50 against EGFR came to 1750 nM; at Tec, 172 nM; in data set [2] it was 45.7 nM; in data set [4] it was 5 nM. Also, on EGFR, the “Fold of EGFR/Btk” value is 350 fold. For the same compound, the “Fold of Tec/Btk” value on Tec was determined as 34 fold.

Regarding `C=CC(=O)N1CC(C2CCNc3c(C(N)=O)c(-c4cc(OC)c(C)c(OC)c4)nn32)C1` (stereo not drawn) [Example B3, 7-(1-acryloylazetidin-3-yl)-2-(3,5-dimethoxy-4-methylphenyl)-4,5,6,7-tetrahydropyrazolo[1,5-a]pyrimidine-3-carboxamide], the IC50 was determined as 1910 nM against EGFR, 157 nM at Tec, 93.1 nM in data set [2] and 5.9 nM in data set [4]. Further, on EGFR, the “Fold of EGFR/Btk” value came out at 324 fold. The “Fold of Tec/Btk” value at Tec is listed as 27 fold.

As for `C=CC(=O)N1CC2CNc3c(C(N)=O)c(-c4cc(OC)c(C)c(OC)c4)nn3C2C1` (stereo not drawn) [Example C1, 7-acryloyl-2-(3,5-dimethoxy-4-methylphenyl)-5,5a,6,7,8,8a-hexahydro-4H-pyrazolo[1,5-a]pyrrolo[3,4-e]pyrimidine-3-carboxamide], at EGFR, the IC50 worked out at 536 nM and the “Fold of EGFR/Btk” value is recorded as 158 fold. At Tec, the IC50 stood at 380 nM and the “Fold of Tec/Btk” value is recorded as 112 fold. Further, in data set [2], the IC50 stood at 49.6 nM. In data set [4], the “affinity / inhibitory activity” value is on record as “high affinity for Btk” and the IC50 is 3.4 nM.

Consider `CC#CC(=O)N1CC[C@@H](n2c(=O)n(-c3ccc(Oc4ccccc4)cc3)c3c(N)ncnc32)C1` [ONO-4059], for which, in data set [3], the “bleeding adverse event (in words)” value was “Bleeding as a common adverse event (AE)”.
